Assay results reported in patent publication US20090155767A1, “Methods for a predictive diagnostic test for tamoxifen” (priority 2007, published 2009).
Where two headings read alike, the source gives them in different places.

Assays:
[1] = tested on: stage II invasive breast cancer (ER+ subset); assay: Randomized clinical trial of two years of adjuvant tamoxifen vs no treatment (Swedish SBII:2a); recurrence-free survival by biomarker subgroup; type: in vivo, human; settings: for HR RFS: ER+
From the text: From 1986 to 1991, 564 patients enrolled in a a randomized clinical trial for adjuvant tamoxifen treatment in early breast cancer (Swedish SBII:2a)(15). Criteria for enrollment included premenopausal status or age less than 50 years, with stage II invasive breast cancer. Patients were randomized to receive two years of tamoxifen (n=276) or no treatment (control, n=288), and were followed for disease-free and overall survival, with a median follow-up of 13.9 years. A detailed description of the trial and results has previously been published (15,16).
For analysis of tamoxifen response, only the ER+ subset of patients were included (16). By IHC, a cut-off value of at least 10% nuclear immunoreactivity was used to classify patients as ER-positive.
The statistical calculations were performed using SPSS Version 13.0 (SPSS, Chicago, Ill.) and Stata Version 9.2 (StataCorp, College Station, Tex.). Pearson's correlation coefficient (R) was used to assess the correlation between log AQUA-EGFR scores from redundant tumor cores and Spearman's Rho to assess the correlation between AQUA-EGFR score and other variables. Recurrence-free survival (RFS) was chosen as endpoint in the present study. RFS included breast cancer specific death, distant, regional and local recurrences and all analyses were performed with the intention to treat rule. The AQUA-EGFR score was dichotomized at the median in order to avoid bias problems associated with cut-off optimization. Kaplan-Meier plots were used to illustrate the survival in high and low EGFR, respectively, and the log rank test to test for equality of survival curves. Hazard ratios were estimated using Cox regression. Proportional hazards assumptions were checked using Schoenfeld's test. The null hypothesis of equal treatment effects in high and low EGFR were evaluated using a Cox model with a term for the interaction between EGFR class and treatment. Cox models with continuous AQUA-EGFR score were also fitted. The original score and a logarithmic transformation of the score were evaluated. […] All p-values corresponded to two-sided tests and values less than 0.05 were considered significant.

[2] = tested on: stage II invasive breast cancer (ER+ subset); settings: Cox univariate, tamoxifen vs control, cited from earlier work

In the case of CC/C(=C(\c1ccccc1)c1ccc(OCCN(C)C)cc1)c1ccccc1 [Tamoxifen], the “HR RFS” value ([1]; Cox multivariate, Tamoxifen Treatment (+/-), n = 324 (available data in 186 patients)) is reported as 0.571, the “HR RFS” value ([1]; Cox univariate, tamoxifen vs control, EGFR-AQUA High, n = 73) is reported as 1.14 and the “HR RFS” value ([1]; Cox univariate, tamoxifen vs control, EGFR-AQUA Low, n = 113) is reported as 0.43. For the same compound, the “HR RFS” value ([1]; Cox univariate, tamoxifen vs control, EGFR-IHC High, n = 27) was 0.73, the “HR RFS” value ([1]; Cox univariate, tamoxifen vs control, EGFR-IHC Low, n = 232) was 0.57 and the “HR RFS” value ([1]; Cox univariate, tamoxifen vs control, HER2-AQUA High, N = 10) was 0.28. For the same compound, the “HR RFS” value ([1]; Cox univariate, tamoxifen vs control, HER2-AQUA Low, N = 231) was 0.64, the “Effect of two years of adjuvant tamoxifen on RFS (log rank, Kaplan-Meier)” value ([1]; ER+ patients with low EGFR expression (AQUA), n=113, p=0.01) was “significant effect” and the “Effect of two years of adjuvant tamoxifen on RFS (log rank, Kaplan-Meier)” value ([1]; ER+ patients, EGFR high group (AQUA), n=73, p=0.69) was “no treatment effect”. For the same compound, the “10-year RFS” value ([1]; ER+ tamoxifen treated patients with high EGFR expression (AQUA)) was 52%, the “10-year RFS” value ([1]; ER+ tamoxifen treated patients, EGFR low group (AQUA)) was 78% and the “Association of high EGFR expression with outcome in tamoxifen-treated patients” value ([1]; ER+ tamoxifen-treated patients, high vs low EGFR (AQUA), Log-Rank p=0.0411) was “shorter time to recurrence and breast cancer death”. The “HR RFS” value ([2]; HER2 IHC 0-2+ (Herceptest), N = 252) was 0.64 and the “HR RFS” value ([2]; HER2 IHC 3+ (Herceptest), N = 23) was 0.67.
